According to publication PMC5595947 (British Journal of Clinical Pharmacology, 2017):
Where two headings read alike, the source gives them in different places.

Tests used:
[1] = molecular target: CYP2C19 (Homo sapiens, UniProt P33261); conditions: HLM; TV‐45065 0.05 to 50 μmol l^–1
[2] = test system: CYP2C8; type: in vitro ADME, human
[3] = molecular target: CYP2C9 (Homo sapiens, UniProt P11712); conditions: HLM; TV‐45065 0.05 to 50 μmol l^–1; printed CYP2C8/9
[4] = test system: CYP2B6; type: in vitro ADME, human
[5] = test system: CYP1A2; type: in vitro ADME, human
[6] = molecular target: T1, CYP2D6 (Homo sapiens, UniProt P10635); assay: CYP2D6 inhibition in human liver microsomes; type: in vitro ADME
T1 sequence (P10635 whole entry): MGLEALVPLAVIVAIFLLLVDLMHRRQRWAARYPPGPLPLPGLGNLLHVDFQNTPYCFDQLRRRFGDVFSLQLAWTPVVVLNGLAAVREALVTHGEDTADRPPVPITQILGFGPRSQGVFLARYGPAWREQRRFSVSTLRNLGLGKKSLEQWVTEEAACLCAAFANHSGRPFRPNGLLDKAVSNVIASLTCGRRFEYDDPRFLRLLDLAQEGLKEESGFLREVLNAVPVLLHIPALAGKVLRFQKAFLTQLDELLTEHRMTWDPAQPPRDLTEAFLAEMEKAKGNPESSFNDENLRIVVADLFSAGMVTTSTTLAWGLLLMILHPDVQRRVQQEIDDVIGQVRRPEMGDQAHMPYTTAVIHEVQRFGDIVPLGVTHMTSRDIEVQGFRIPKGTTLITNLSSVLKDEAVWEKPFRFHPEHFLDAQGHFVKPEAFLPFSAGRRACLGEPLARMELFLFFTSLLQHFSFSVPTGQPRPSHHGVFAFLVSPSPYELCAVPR

[7] = test system: CYP3A4/5; assay: CYP3A4/5 induction in cultured human hepatocytes; type: in vitro ADME
[8] = molecular target: T2, CYP2C8 (Homo sapiens, UniProt P10632); conditions: HLM; TV‐45065 0.05 to 50 μmol l^–1; printed CYP2C8/9
T2 sequence (P10632 1-490): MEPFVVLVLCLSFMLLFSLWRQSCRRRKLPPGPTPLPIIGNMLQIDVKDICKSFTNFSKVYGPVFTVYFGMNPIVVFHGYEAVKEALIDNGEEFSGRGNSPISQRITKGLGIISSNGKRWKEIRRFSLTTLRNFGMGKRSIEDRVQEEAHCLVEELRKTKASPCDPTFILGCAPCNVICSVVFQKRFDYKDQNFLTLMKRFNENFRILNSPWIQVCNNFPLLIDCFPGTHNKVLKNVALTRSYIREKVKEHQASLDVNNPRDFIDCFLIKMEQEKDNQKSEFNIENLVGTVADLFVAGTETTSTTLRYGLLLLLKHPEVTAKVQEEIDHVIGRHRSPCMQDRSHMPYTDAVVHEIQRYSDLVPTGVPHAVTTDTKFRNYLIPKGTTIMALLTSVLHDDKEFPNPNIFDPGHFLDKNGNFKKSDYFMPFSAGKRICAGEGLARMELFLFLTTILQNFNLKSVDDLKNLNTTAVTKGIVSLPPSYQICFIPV

[9] = molecular target: CYP3A4 (Homo sapiens, UniProt P08684); assay: CYP3A4 inhibition in human liver microsomes; type: in vitro ADME; conditions: HLM; TV‐45065 0.05 to 50 μmol l^–1
Sequence of CYP3A4 (P08684 2-503): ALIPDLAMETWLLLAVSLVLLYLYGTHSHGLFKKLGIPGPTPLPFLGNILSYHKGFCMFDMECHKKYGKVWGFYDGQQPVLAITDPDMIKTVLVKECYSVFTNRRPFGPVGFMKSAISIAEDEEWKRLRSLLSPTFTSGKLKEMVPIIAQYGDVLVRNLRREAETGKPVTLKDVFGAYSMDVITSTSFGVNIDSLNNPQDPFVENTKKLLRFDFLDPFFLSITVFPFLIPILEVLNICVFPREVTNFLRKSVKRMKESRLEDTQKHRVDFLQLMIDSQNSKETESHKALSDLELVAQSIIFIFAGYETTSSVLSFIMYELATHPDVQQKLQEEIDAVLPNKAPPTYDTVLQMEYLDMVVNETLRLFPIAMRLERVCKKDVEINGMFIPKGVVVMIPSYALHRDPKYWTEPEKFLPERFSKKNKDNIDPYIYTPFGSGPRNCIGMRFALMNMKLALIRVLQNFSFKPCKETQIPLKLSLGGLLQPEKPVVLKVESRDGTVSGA

[10] = molecular target: T3, CYP1A2 (Homo sapiens, UniProt P05177); conditions: HLM; TV‐45065 0.05 to 50 μmol l^–1
T3 sequence (P05177 1-516): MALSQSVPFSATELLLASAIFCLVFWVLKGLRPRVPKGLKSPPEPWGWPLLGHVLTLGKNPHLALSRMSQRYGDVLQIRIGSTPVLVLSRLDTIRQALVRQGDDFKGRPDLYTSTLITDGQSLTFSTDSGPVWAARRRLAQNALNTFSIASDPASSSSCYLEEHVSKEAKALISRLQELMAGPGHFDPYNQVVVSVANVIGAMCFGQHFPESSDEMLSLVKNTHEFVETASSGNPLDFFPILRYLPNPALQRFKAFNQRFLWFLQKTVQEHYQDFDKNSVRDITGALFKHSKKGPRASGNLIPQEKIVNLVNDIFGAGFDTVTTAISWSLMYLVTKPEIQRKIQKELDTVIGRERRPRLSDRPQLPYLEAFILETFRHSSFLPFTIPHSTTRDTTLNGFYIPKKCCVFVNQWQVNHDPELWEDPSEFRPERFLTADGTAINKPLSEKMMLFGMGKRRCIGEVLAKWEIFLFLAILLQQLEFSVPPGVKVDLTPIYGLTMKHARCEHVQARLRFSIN

[11] = test system: CYP2C19; type: in vitro ADME, human
[12] = cited from earlier work; for elimination half‐life: metabolite
[13] = test system: CYP2C9; type: in vitro ADME, human
[14] = molecular target: T1, CYP2D6
[15] = molecular target: T1, CYP2D6; assay: clinical; conditions: plasma, 100 mg
[16] = Safety and adverse events in the phase‐1 study in healthy subjects; type: in vivo, human
[17] = clinical; conditions: human, plasma, oral, 45 mg
[18] = not given; remark: listed apart in the source
[19] = molecular target: T1, CYP2D6; conditions: up to 100 μmol l^–1 pridopidine
[20] = up to 50 μmol l^–1 TV‐45065, three consecutive days
[21] = caused by steady‐state pridopidine (discussion)
[22] = metoprolol coadministered with pridopidine vs alone
[23] = up to 100 μmol l^–1 pridopidine, 3 days, three hepatocyte cultures
[24] = up to 100 μmol l^–1 pridopidine, cultured human hepatocytes

Sequence of CYP2C19 (Homo sapiens, UniProt P33261) (P33261 whole entry): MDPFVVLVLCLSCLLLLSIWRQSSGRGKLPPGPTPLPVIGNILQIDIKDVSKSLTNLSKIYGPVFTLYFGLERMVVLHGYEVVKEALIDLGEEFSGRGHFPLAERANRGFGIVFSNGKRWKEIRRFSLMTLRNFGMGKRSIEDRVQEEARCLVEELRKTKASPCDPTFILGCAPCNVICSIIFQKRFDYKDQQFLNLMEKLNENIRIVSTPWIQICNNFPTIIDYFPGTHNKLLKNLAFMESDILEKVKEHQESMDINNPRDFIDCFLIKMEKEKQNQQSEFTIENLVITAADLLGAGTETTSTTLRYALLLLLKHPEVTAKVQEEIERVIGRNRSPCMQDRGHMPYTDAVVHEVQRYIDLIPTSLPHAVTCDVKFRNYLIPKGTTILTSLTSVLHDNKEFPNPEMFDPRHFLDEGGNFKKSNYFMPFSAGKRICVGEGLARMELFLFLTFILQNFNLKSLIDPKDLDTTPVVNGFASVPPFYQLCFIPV
Sequence of CYP2C9 (Homo sapiens, UniProt P11712) (P11712 whole entry): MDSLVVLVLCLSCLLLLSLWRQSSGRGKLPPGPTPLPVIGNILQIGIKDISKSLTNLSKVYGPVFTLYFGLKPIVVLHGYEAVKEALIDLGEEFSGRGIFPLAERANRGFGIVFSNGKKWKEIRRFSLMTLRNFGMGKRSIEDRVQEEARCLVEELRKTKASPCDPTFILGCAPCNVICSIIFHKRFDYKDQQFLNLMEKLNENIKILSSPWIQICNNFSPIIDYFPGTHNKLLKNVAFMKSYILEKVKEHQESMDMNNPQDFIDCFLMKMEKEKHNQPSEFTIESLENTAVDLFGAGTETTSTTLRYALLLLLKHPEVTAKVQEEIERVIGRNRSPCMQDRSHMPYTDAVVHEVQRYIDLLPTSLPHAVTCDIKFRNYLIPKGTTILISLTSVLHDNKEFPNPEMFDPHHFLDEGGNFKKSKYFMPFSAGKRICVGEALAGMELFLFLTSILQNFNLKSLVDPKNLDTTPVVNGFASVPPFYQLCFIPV

Q: For `CS(=O)(=O)c1cccc(C2CCNCC2)c1` [TV‐45065], which “direct inhibition of CYP2C19” value [1] is on record?
A: did not show any direct inhibition

Q: And the “CYP2C8 induction, effectiveness relative to positive control CYP inducer” value [2, 20]?
A: ≤ 20%

Q: What about the “increase in CYP2C8 activity or mRNA expression (on average)” value [2, 20] of the same compound?
A: ≤ 2.0 fold

Q: What about the “Cmax and AUC, fed vs fasted states” value (metabolite after single 90‐mg pridopidine dose, data not shown) of the same compound?
A: similar

Q: And the “direct inhibition of CYP2C9” value [3]?
A: did not show any direct inhibition

Q: What about the “CYP2B6 induction, effectiveness relative to positive control CYP inducer” value [4, 20] of the same compound?
A: ≤ 20%

Q: What about the “increase in CYP2B6 activity or mRNA expression (on average)” value [4, 20] of the same compound?
A: ≤ 2.0 fold

Q: And the “CYP1A2 induction, effectiveness relative to positive control CYP inducer” value [5, 20]?
A: ≤ 20%

Q: What about the “increase in CYP1A2 activity or mRNA expression (on average)” value [5, 20] of the same compound?
A: ≤ 2.0 fold

Q: What about the “direct inhibition of CYP2D6” value ([6]; HLM, TV‐45065 0.05 to 50 μmol l^–1) of the same compound?
A: did not show any direct inhibition

Q: What about the IC50 ([6]; read-out: IC50, time‐/metabolism‐dependent inhibition of CYP2D6, HLM, TV‐45065 0.05 to 50 μmol l^–1) of the same compound?
A: > 50 µM

Q: What about the “CYP3A4/5 induction, effectiveness relative to positive control CYP inducer” value [7, 20] of the same compound?
A: ≤ 20%

Q: And the “increase in CYP3A4/5 activity or mRNA expression (on average)” value [7, 20]?
A: ≤ 2.0 fold

Q: And the “direct inhibition of CYP2C8” value [8]?
A: did not show any direct inhibition

Q: And the “direct inhibition of CYP3A4” value [9]?
A: did not show any direct inhibition

Q: What about the “direct inhibition of CYP1A2” value [10] of the same compound?
A: did not show any direct inhibition

Q: And the “CYP2C19 induction, effectiveness relative to positive control CYP inducer” value [11, 20]?
A: ≤ 20%

Q: What about the “increase in CYP2C19 activity or mRNA expression (on average)” value [11, 20] of the same compound?
A: ≤ 2.0 fold

Q: And the “elimination half‐life” value ([12]; repeated administration, extensive metabolizers)?
A: 17 h

Q: And the “elimination half‐life” value ([12]; repeated administration, poor metabolizers)?
A: 19 h

Q: And the “elimination half‐life” value ([12]; single dose administration, extensive metabolizers)?
A: approximately 8 h

Q: What about the “elimination half‐life” value ([12]; single dose administration, poor metabolizers) of the same compound?
A: ~32 h

Q: And the “CYP2C9 induction, effectiveness relative to positive control CYP inducer” value [13, 20]?
A: ≤ 20%

Q: And the “increase in CYP2C9 activity or mRNA expression (on average)” value [13, 20]?
A: ≤ 2.0 fold

Q: What does the source list for `COCCc1ccc(OCC(O)CNC(C)C)cc1` (stereo not shown) [metoprolol]?
A: increase in metoprolol AUC [14, 21]: up to 5 fold; increase in metoprolol peak concentrations [14, 21]: up to 3 fold; t½, mean (SD) ([14]; metoprolol 100 mg single oral dose alone): 3.69 (0.83) h; increase in mean AUC0–∞ [14, 22]: 5.1 fold; increase in mean Cmax [14, 22]: 3.5 fold; range of tmax ([14]; metoprolol during coadministration with pridopidine): 1 to 4 h; Tmax ([15]; oral): 0.75 to 2 h; AUC(0-inf) ([15]; po): 460 ng·h/mL; AUC(0-t) ([15]; po): 447 ng·h/mL; Cmax ([15]; po): 84 ng/mL; Tmax ([15]; po): ~2 h

Q: What does the source list for `CCCN1CCC(c2cccc(S(C)(=O)=O)c2)CC1` [pridopidine, 4‐[3‐(methylsulfonyl)phenyl]‐1‐propylpidperidine]?
A: amnestic aphasia, subjects ([16]; following BID administration, two subjects): 9.1%; increase in pulse rate ([16]; pridopidine 45 mg BID): up to 12 beats min^–1; Cmax [17]: 525 ng/mL; change in CYP2C8 mRNA levels [2, 23]: < 2 fold; change in CYP2C8 activity [2, 24]: < 2 fold; difference in median tmax, fed state in comparison to fasted state (single 90‐mg dose): 1.5 h; change in CYP2B6 mRNA levels [4, 23]: < 2 fold; change in CYP2B6 activity [4, 24]: < 2 fold; change in CYP1A2 mRNA levels [5, 23]: < 2 fold; change in CYP1A2 activity [5, 24]: < 2 fold; Cmax,ss, mean (SD) ([18]; 45 mg BID for 7 days, PM (6–18 h), metoprolol given with PM dose): 727.30 (152.38) ng ml^–1; Cav,ss, mean (SD) ([18]; 45 mg BID, AM (0–6 h)): 407.29 (90.82); AUCss, mean (SD) ([18]; 45 mg BID, AM (0–6 h), AUC0–6): 2443.75 (544.95) ng h ml^–1; Cav,ss, mean (SD) ([18]; 45 mg BID, PM (6–18 h)): 447.33 (92.19); AUCss, mean (SD) ([18]; 45 mg BID, PM (6–18 h), AUC0–18 following the afternoon dose): 8052.03 (1659.34) ng h ml^–1; time of BID dosing after which steady state was reached ([18]; 45 mg BID, morning trough plasma levels): 7 days; effect of heat inactivation of FMO on CYP2D6 MDI extent ([6]; HLM heat treated (50°C, 2 min)): did not affect; IC50 ([6]; IC50, direct inhibition (no preincubation), HLM, preincubation time row 2 h): 39 µM; IC50 ([6]; IC50, direct inhibition (no preincubation), HLM, preincubation time row 3 h): 39 µM; IC50 ([6]; IC50, direct inhibition (no preincubation), HLM, preincubation time row 4 h): 39 µM; reversibility of metabolism‐dependent inhibition of CYP2D6 ([6]; microsomal re‐isolation or addition of potassium ferricyanide): not reversed; decrease in CYP2D6 activity compared to vehicle control ([19]; hepatocyte cultures, vehicle 0.1% DMSO): up to 64.2%; change in CYP2D6 mRNA levels ([19]; 3 days, three hepatocyte cultures): < 2 fold; change in CYP3A4 mRNA levels [7, 23]: < 2 fold; change in CYP2C19 mRNA levels [11, 23]: < 2 fold; change in CYP2C19 activity [11, 24]: < 2 fold; time (tmax) to reach Cmax ([12]; oral administration): roughly 2 h; mean peak concentration in plasma ([12]; single 45‐mg dose): 303 ng ml^–1; pridopidine exposure ([12]; single dose, extensive metabolizers): 3782 ng h ml^–1; pridopidine exposure ([12]; single dose, poor metabolizers): 11 192 ng h ml^–1; mean peak concentration in plasma ([12]; steady state following 14 days of 45 mg BID dosing): 620 ng ml^–1; pridopidine exposure ([12]; steady state, extensive metabolizers): 9338 ng h ml^–1; pridopidine exposure ([12]; steady state, poor metabolizers): 12 080 ng ml^–1; change in CYP2C9 mRNA levels [13, 23]: < 2 fold; change in CYP2C9 activity [13, 24]: < 2 fold
